Data taken from paper PMC3806745, “Selective Inhibition of Matrix Metalloproteinase-9 Attenuates Secondary Damage Resulting from Severe Traumatic Brain Injury” (PLoS ONE, 2013).

Key:
[1] = Regional brain distribution of SB-3CT and p-OH SB-3CT after repeated i.p. SB-3CT; type: in vivo, mouse; details: mice
Experimental: Under anesthesia, terminal blood was collected in heparin tubes through the posterior vena cava at various time points after the last dose, and tubes were centrifuged to collect plasma. Whole brain samples were harvested after transcardiac perfusion with saline and immediately flash frozen in liquid nitrogen and stored at −80°C until analysis. […] At 10 minutes after the last dose, whole brain samples were rapidly dissected into different regions (cortex, striatum, hippocampus, cerebellum and brain stem), and immediately frozen in dry ice.
A 75-µL aliquot of plasma was mixed with 150 µL of internal standard in acetonitrile. The sample was centrifuged at 10,000×g for 10 minutes. Brain samples were weighed and homogenized for 5 minutes in one volume equivalent of cold acetonitrile, containing an internal standard, using a bullet blender (Next Advance, Inc., Averill Park, NY). For regional brain distribution, the striatum, hippocampus, cerebellum and brain stem samples were pooled from 3 different mice for analysis.
The homogenates were centrifuged twice at 20,000×g for 20 minutes at 4°C. […] Quantification was performed using peak area ratios relative to the internal standard and linear regression parameters were calculated from the calibration curve standards prepared in blank mouse plasma (and blank brain). The internal standard used in all of the analyses was N-(4-(4-((thiiran-2-ylmethyl)sulfonyl)phenoxy)phenyl)methanesulfonamide [43], which was analyzed by MRM using the transition 398→261. The chromatographic, MRM conditions, and method validation were the same as previously described [17].

[2] = target: MMP-9 (Mus musculus, UniProt P41245); experiment: Gelatin zymography of cortical tissue after TBI; type: in vivo; details: TBI mice, 25 mg/kg/day i.p. for 7 days, 7 days post-trauma, vs vehicle
Experimental: (§1) All animal procedures were performed under the compliance with protocol approval by the University of Missouri Animal Care and Use Committee, which is in accordance with the National Institutes of Health Guide for the Care and Use of Laboratory Animals. The TBI procedure employed an EM impactor for CCI and was conducted as previously described. A total of 86 mice were used in this study. Briefly, 8–10 week-old adult male C57BL/6J mice (The Jackson Laboratory, Bar Harbor, ME) weighing 20–25 g were anesthetized with 2.0% gaseous isoflurane in a nitrogen/oxygen mixture inside a sealed anesthesia chamber. Each mouse was then stably placed on a Kopf stereotaxic apparatus (David Kopf Instruments, Tujunga, CA). Body temperature was monitored with a rectal thermistor probe (TH-10Kmp, Cell MicroControls, Norfolk, VA), and maintained at a constant 37°C on a silicon heating pad (HS-3×2.5 Heater, Cell MicroControls, Norfolk, VA). […]
Gelatinase activity in brain homogenates was determined by gelatin zymography as described previously, [16]. […] Bound material was released from the beads using 10% DMSO in TBS, and samples were analyzed by electrophoresis in a 10% SDS-PAGE gel containing 0.1% gelatin under non-reducing conditions, followed by incubation overnight at 37°C in 50 mM Tris buffer, pH 8, with 5 mM CaCl2, 200 mM NaCl, and 0.02% Brij 35. […]

[3] = system: TBI mouse model (EM impactor CCI); experiment: Beam-walking test after TBI; type: in vivo; details: TBI mice, 25 mg/kg i.p. for 7 days
[4] = system: TBI mouse model (EM impactor CCI); experiment: Microglial activation and astrogliosis, CD11b/GFAP immunofluorescence after TBI; type: in vivo; details: TBI mice, SB-3CT treatment for 7 days; 7 days post-trauma
Experimental: as §1
(§2) Fluorescence immunohistochemistry was carried out as described, [16], [19]. For each brain analyzed, coronal sections were chosen near the center of the craniotomy (Bregma −1.50 mm) and adjacent to a section stained with cresyl violet for comparison. […]

[5] = system: TBI mouse model (EM impactor CCI); experiment: Neurons with dendrites, NeuN/MAP2 immunohistochemistry after TBI; type: in vivo; details: TBI mice, 25 mg/kg i.p. for 7 days; 7 days after TBI
Experimental: as §1, §2

[6] = 10 minutes after the last i.p. dose of SB-3CT

Sequence of MMP-9 (P41245 108-730): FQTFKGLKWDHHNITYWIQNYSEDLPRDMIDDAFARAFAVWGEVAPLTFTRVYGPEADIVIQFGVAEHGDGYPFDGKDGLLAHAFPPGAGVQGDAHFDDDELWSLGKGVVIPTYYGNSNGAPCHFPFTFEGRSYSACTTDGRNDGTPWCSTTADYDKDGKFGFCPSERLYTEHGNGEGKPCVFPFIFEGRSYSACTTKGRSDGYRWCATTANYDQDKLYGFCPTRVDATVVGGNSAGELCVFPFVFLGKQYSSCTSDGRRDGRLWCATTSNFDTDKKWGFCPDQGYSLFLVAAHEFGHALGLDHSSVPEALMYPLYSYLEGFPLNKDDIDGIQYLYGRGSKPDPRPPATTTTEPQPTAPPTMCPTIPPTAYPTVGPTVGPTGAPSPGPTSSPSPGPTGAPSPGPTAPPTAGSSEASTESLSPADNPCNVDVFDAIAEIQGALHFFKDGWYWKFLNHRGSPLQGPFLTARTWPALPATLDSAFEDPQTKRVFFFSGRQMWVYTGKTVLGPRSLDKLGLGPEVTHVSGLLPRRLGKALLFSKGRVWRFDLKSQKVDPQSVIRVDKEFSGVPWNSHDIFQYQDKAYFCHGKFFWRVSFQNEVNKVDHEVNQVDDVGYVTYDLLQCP

In the case of `O=S(=O)(CC1CS1)c1ccc(Oc2ccccc2)cc1` (centres unmarked) [SB-3CT], the “Conc, whole brain” value ([1]; 10 minutes after the last i.p. dose of SB-3CT (25 mg/kg at 0, 2, 24 h)) is reported as 3.7±0.5 pmole/mg tissue, the “Conc, brain stem” value [1, 6] is reported as 2.8±0.8 pmole/mg tissue and the “Conc, cerebellum” value [1, 6] is reported as 2.4±0.4 pmole/mg tissue. For the same compound, the “Conc, cortex” value [1, 6] was 2.7±0.8 pmole/mg tissue, the “Conc, hippocampus” value [1, 6] was 3.1±0.8 pmole/mg tissue and the “Conc, plasma” value [1, 6] was 6.2 ± 0.1 µM. For the same compound, the “Conc, striatum” value [1, 6] was 3.5±1.1 pmole/mg tissue, the “Levels of proMMP-9 and active MMP-9 in lesioned cortex (gelatin zymography, densitometry)” value [2] was “attenuated” and the “Reduction of motor deficits (beam-walking foot faults) vs vehicle” value ([3]; day 7 after TBI) was “more than 50%”. The “Motor function recovery (beam-walking)” value ([3]; day 14 after TBI) was “almost-complete recovery”, the “Immunoreactivity of GFAP-stained astrocytes” value [4] was “partially attenuated” and the “Numbers of CD11b-positive microglial cells in lesioned cortex vs vehicle” value [4] was “significantly reduced”. For the same compound, the “Surviving neurons with dendrites, contralateral cortex” value [5] was 7.53±0.59% and the “Surviving neurons with dendrites, lesioned cortex” value [5] was 2.86±0.63%.
